Data on 16 compounds can be found in PubChem BioAssay (NCI).

“And” between values parts separate entries of the source, which are not always exact repeats. Equal entries are not always repeated.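 Values below derive from 48-hour exposures of cells grown in 96-well plates, with endpoints linearly interpolated between the two concentrations bracketing the appropriate inhibition level. GI50 marks 50% less growth. TGI marks complete inhibition of growth.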

The test system of the first assay is UO-31 renal. Put plainly: NCI tumour cell line growth inhibition, 48 h.
As for `N#C/C=C(\c1ccc([N+](=O)[O-])cc1)n1nnc2cc(Cl)c(Cl)cc21`, the GI50 was 1.11 µM and the TGI was 2.32 µM.

`CCN(CC)CCOc1ccc(/C=C2\CC3C4CC=C5C[C@@H](O)CC[C@]5(C)C4CC[C@]3(C)C2=O)cc1OC` (some centres undefined): the TGI is over 100 µM.

In turn, `O=C(CC(O)(C(F)(F)F)C(F)(F)F)c1cc(CC(=O)C(O)(C(F)(F)F)C(F)(F)F)cc(CC(=O)C(O)(C(F)(F)F)C(F)(F)F)c1` had a TGI of 3.84 µM.

`O=c1c2ccccc2sc2cccc(NCCCN3CCN(CCCNc4cccc5sc6ccccc6c(=O)c45)CC3)c12`: the TGI was over 100 µM.

Regarding `Cc1cn2c(/C=C3\C(=O)Nc4ccc(O)cc43)c(-c3ccc(Cl)cc3)nc2s1`, the GI50 is 5.37 µM and the TGI was determined as 59.9 µM.

As to `CC1(C)OCCn2c1nc1c(N3CCOCC3)nc(-c3cnc(N)nc3)nc12`, the GI50 is 0.0912 µM and the TGI amounted to 1.11 µM.

For `O=C(c1c(F)ccc(NS(=O)(=O)N2CC[C@@H](F)C2)c1F)c1c[nH]c2ncc(-c3cnc(C4CC4)nc3)cc12`, the GI50 is 3.41 µM and 3.79 µM; the TGI is > 10 µM and 25.5 µM.

Turning to `COc1cc(-c2nn(-c3cccc(NC(=O)Nc4ccc(Cl)c(Cl)c4)c3)cc2-c2ccncc2)ccc1Cl`, the GI50 was 0.845 µM and the TGI was 4.96 µM.

The next assay concerns NCI-H226 lung. Put plainly: NCI tumour cell line growth inhibition, 48 h.
`O=C(c1ccc(F)c(F)c1Nc1ccc(I)cc1F)N1CC(O)([C@@H]2CCCCN2)C1`: the GI50 is 1.91 µM and 1.24 µM; the TGI was 23.3 µM and > 10 µM.

Compound `Oc1cc(O)c2c(c1)OC(c1ccc(O)c(O)c1)C(OC1(c3cc(O)c(O)c(O)c3)Oc3cc(O)cc(O)c3C(O)C1O)C2` (centres undefined) yielded a TGI of 50.9 µM.

Consider `CCOc1ccc2nc(S/C(=C/C=C(C#N)C#N)c3ccc(C)cc3)sc2c1`, for which the GI50 is 20.3 µM and the TGI came to 42.4 µM.

In the case of `COc1cc(CNCCCN2C(=O)c3ccc4c5c(ccc(c35)C2=O)C(=O)N(CCCNCc2cc(OC)c(OC)c(OC)c2)C4=O)cc(OC)c1OC`, the GI50 is 0.814 µM and the TGI worked out at 2 µM.

As to `O=c1[nH]c(=O)n(C2CC(O)C(CO)O2)cc1CO` (centres undefined), the GI50 was over 100 µM and the TGI was over 100 µM.

Turning to `Cc1nc2cnc(N)c(C#Cc3cncc(C(=O)Nc4ccc(CN5CCN(C)CC5)c(C(F)(F)F)c4)c3)c2nc1C`, the GI50 was 0.188 µM and the TGI was 2.61 µM.

In turn, `CC(=O)OC12c3ccccc3-c3ccccc3C1C1C(=O)N(C)C(=O)C12Cl` (centres undefined) showed a TGI of over 10 µM.

Take `CS(=O)(=O)CCCn1c(=O)c(Oc2ccc(F)cc2F)cc2cnc(NC3CCOCC3)nc21`: the GI50 was over 25 µM and the TGI is over 25 µM.

In the case of `N#C/C=C(\c1ccc([N+](=O)[O-])cc1)n1nnc2cc(Cl)c(Cl)cc21`, the GI50 was 3 µM and the TGI amounted to 17.1 µM.

`CCN(CC)CCOc1ccc(/C=C2\CC3C4CC=C5C[C@@H](O)CC[C@]5(C)C4CC[C@]3(C)C2=O)cc1OC` (some centres undefined): the GI50 was 2.77 µM and the TGI turned out to be 8.77 µM.

Consider `O=C(CC(O)(C(F)(F)F)C(F)(F)F)c1cc(CC(=O)C(O)(C(F)(F)F)C(F)(F)F)cc(CC(=O)C(O)(C(F)(F)F)C(F)(F)F)c1`, for which the TGI was over 6.85 µM.

As to `O=c1c2ccccc2sc2cccc(NCCCN3CCN(CCCNc4cccc5sc6ccccc6c(=O)c45)CC3)c12`, the TGI was over 100 µM.

As for `Cc1cn2c(/C=C3\C(=O)Nc4ccc(O)cc43)c(-c3ccc(Cl)cc3)nc2s1`, the GI50 was 18.5 µM and the TGI is 51 µM.

As to `CC1(C)OCCn2c1nc1c(N3CCOCC3)nc(-c3cnc(N)nc3)nc12`, the GI50 was 0.227 µM and the TGI amounted to 8.75 µM.

Regarding `O=C(c1c(F)ccc(NS(=O)(=O)N2CC[C@@H](F)C2)c1F)c1c[nH]c2ncc(-c3cnc(C4CC4)nc3)cc12`, the GI50 is 4.81 µM and 9.14 µM; the TGI was > 10 µM and 64.6 µM.

Consider `COc1cc(-c2nn(-c3cccc(NC(=O)Nc4ccc(Cl)c(Cl)c4)c3)cc2-c2ccncc2)ccc1Cl`, for which the GI50 was 1.35 µM and the TGI is over 50 µM.

Another assay deals with NCI-H522 lung. Put plainly: NCI tumour cell line growth inhibition, 48 h.
For `O=C(c1ccc(F)c(F)c1Nc1ccc(I)cc1F)N1CC(O)([C@@H]2CCCCN2)C1`, the GI50 is 4.16 µM and 3.22 µM; the TGI was 21.6 µM and > 10 µM.

In turn, `Oc1cc(O)c2c(c1)OC(c1ccc(O)c(O)c1)C(OC1(c3cc(O)c(O)c(O)c3)Oc3cc(O)cc(O)c3C(O)C1O)C2` (centres undefined) gave a TGI of 49.7 µM.

On to `CCOc1ccc2nc(S/C(=C/C=C(C#N)C#N)c3ccc(C)cc3)sc2c1`, for which the GI50 was 20.8 µM and the TGI was 49.3 µM.

`COc1cc(CNCCCN2C(=O)c3ccc4c5c(ccc(c35)C2=O)C(=O)N(CCCNCc2cc(OC)c(OC)c(OC)c2)C4=O)cc(OC)c1OC`: the GI50 is 0.409 µM and the TGI stood at 1.14 µM.

As to `O=c1[nH]c(=O)n(C2CC(O)C(CO)O2)cc1CO` (centres undefined), the GI50 was over 100 µM and the TGI is over 100 µM.

With `Cc1nc2cnc(N)c(C#Cc3cncc(C(=O)Nc4ccc(CN5CCN(C)CC5)c(C(F)(F)F)c4)c3)c2nc1C`, the GI50 was 0.276 µM and the TGI came to 3.86 µM.

As to `CC(=O)OC12c3ccccc3-c3ccccc3C1C1C(=O)N(C)C(=O)C12Cl` (centres undefined), the TGI was over 10 µM.

Take `CS(=O)(=O)CCCn1c(=O)c(Oc2ccc(F)cc2F)cc2cnc(NC3CCOCC3)nc21`: the GI50 was over 25 µM and the TGI is over 25 µM.

As to `N#C/C=C(\c1ccc([N+](=O)[O-])cc1)n1nnc2cc(Cl)c(Cl)cc21`, the GI50 is 1.72 µM and the TGI turned out to be 3.57 µM.

For `CCN(CC)CCOc1ccc(/C=C2\CC3C4CC=C5C[C@@H](O)CC[C@]5(C)C4CC[C@]3(C)C2=O)cc1OC` (some centres undefined), the GI50 was 3.57 µM and the TGI was 14 µM.

`O=C(CC(O)(C(F)(F)F)C(F)(F)F)c1cc(CC(=O)C(O)(C(F)(F)F)C(F)(F)F)cc(CC(=O)C(O)(C(F)(F)F)C(F)(F)F)c1` gave a TGI of 4.59 µM.

Compound `O=c1c2ccccc2sc2cccc(NCCCN3CCN(CCCNc4cccc5sc6ccccc6c(=O)c45)CC3)c12` gave a TGI of over 100 µM.

As for `Cc1cn2c(/C=C3\C(=O)Nc4ccc(O)cc43)c(-c3ccc(Cl)cc3)nc2s1`, the GI50 was 11.3 µM and the TGI stood at 57.9 µM.

`CC1(C)OCCn2c1nc1c(N3CCOCC3)nc(-c3cnc(N)nc3)nc12`: the GI50 was 0.415 µM and the TGI is 40.8 µM.

In the case of `O=C(c1c(F)ccc(NS(=O)(=O)N2CC[C@@H](F)C2)c1F)c1c[nH]c2ncc(-c3cnc(C4CC4)nc3)cc12`, the GI50 was 3.05 µM and 4.34 µM; the TGI is > 10 µM and 22.7 µM.

On to `COc1cc(-c2nn(-c3cccc(NC(=O)Nc4ccc(Cl)c(Cl)c4)c3)cc2-c2ccncc2)ccc1Cl`, for which the GI50 was 0.811 µM and the TGI was 3.1 µM.
